Source: article PMC10459044, “Anticholinesterase and Serotoninergic Evaluation of Benzimidazole–Carboxamides as Potential Multifunctional Agents for the Treatment of Alzheimer’s Disease” (Pharmaceutics, 2023)
Entries after “also recorded” stand apart in the source; their conditions may differ. Like-named read-outs stand apart in the source and are kept apart here.

What was measured:
[1] = biological target: T1, human AChE (Homo sapiens, UniProt P22303); test: biochemical; format: biochemical; conditions: for Type of Inhibition / thermodynamic cooperativity factor α: human AChE; for Type of Inhibition: Lineweaver–Burk plots; for thermodynamic cooperativity factor α: mixed inhibition model
T1 construct: human erythrocyte AChE (Biomed, Auckland, New Zealand); purchased Biomed, Auckland, New Zealand; host or cells: human erythrocytes (natural source)
T1 sequence (P22303 32-617 isoform P22303-2 limits assumed): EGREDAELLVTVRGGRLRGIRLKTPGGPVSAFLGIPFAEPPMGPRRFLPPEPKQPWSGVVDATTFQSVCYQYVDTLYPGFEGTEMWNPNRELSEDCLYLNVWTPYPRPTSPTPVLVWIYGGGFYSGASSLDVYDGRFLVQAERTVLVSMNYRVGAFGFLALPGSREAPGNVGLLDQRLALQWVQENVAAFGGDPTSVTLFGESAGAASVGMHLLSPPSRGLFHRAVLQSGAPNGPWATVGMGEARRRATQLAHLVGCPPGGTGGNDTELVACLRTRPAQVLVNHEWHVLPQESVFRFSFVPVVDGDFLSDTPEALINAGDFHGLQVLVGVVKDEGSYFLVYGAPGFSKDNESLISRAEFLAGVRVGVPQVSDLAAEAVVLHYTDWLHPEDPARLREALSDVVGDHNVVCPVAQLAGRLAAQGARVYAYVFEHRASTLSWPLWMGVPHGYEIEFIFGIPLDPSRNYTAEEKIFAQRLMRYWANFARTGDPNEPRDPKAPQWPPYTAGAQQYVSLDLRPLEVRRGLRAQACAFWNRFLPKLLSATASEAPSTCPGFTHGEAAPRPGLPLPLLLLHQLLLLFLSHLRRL
Method: (§1) The biochemical analysis of the inhibitory ability of the drugs against AChE and BChE was performed using a microplate modification of the Ellman method. The following reagents were used: 5,5′-dithio-bis-2-nitrobenzoic acid (DTNB, Sigma-Aldrich, St. Louis, MO, USA), acetylthiocholine (ATCh, Sigma-Aldrich), butyrylthiocholine (BTCh, Sigma-Aldrich), human erythrocyte AChE (Biomed, Auckland, New Zealand), human plasma BChE (Mechnikov Scientific Research Institute of Vaccines and Serums, St. Petersburg, Russia), phosphate-buffered saline (PBS; pH 7.2; Biolot, […]) and distilled water (pH 5.97, Biolot).
(§2) AChE and BChE were dissolved in PBS to obtain solutions of 1 mg/mL. Due to its high activity, human BChE was used at a 1:30 dilution. Solutions of the studied compounds were prepared with serial dilutions; their concentration in the reaction mixture was in a range from 0 to 300 μM. Double-distilled water, ethanol and dimethyl sulfoxide (DMSO, up to 15% of the total solvent volume) were used as solvents. When using DMSO or ethanol, an additional control was performed to assess the effect of the solvent itself. Protein (AChE of BChE) was incubated for 5 min at 37 °C and then the coloring solution was added, which contained a 2 mM freshly prepared DTNB solution and the substrate (ATCh/BTCh) in the concentration range of 200–800 μM. The kinetics were recorded for 15 min at 37 °C at a wavelength of 405 nm. Activity (μM × min^−1) was calculated using the molar extinction coefficient 0.01415 μmol^−1 × cm^−1: (V/ε × l × v) × (ΔE/Δt), where V is the volume of the analyzed mixture (μL); v is the volume of the enzyme solution (μL); ΔE/Δt is the change in extinction in 1 min; l is the thickness of the absorbing layer (cm); and ε is the coefficient of molar extinction of […]. Each measurement was repeated three times.
(§3) The type of inhibition was evaluated using Lineweaver–Burk plots. The dissociation constant of the enzyme-inhibitor complex (Ki), the maximum rate (Vmax) and thermodynamic cooperativity factor α were calculated using the Graphpad Prism 8.0 program (GraphPad Software Inc., San Diego, CA, USA) according to the model “enzymatic kinetics-inhibition—type of inhibition”.

[2] = biological target: T2, human BChE (Homo sapiens, UniProt P06276); test: Inhibition of human plasma BChE, microplate Ellman method; format: biochemical; conditions: for Type of Inhibition: human BChE, Lineweaver–Burk plots; for Ki: human plasma BChE (1:30 dilution), BTCh substrate, 37 °C
T2 construct: human plasma BChE (Mechnikov Scientific Research Institute of Vaccines and Serums, St. Petersburg, Russia); purchased Mechnikov Scientific Research Institute of Vaccines and Serums, St. Petersburg, Russia; host or cells: human plasma (natural source)
T2 sequence (P06276 29-602): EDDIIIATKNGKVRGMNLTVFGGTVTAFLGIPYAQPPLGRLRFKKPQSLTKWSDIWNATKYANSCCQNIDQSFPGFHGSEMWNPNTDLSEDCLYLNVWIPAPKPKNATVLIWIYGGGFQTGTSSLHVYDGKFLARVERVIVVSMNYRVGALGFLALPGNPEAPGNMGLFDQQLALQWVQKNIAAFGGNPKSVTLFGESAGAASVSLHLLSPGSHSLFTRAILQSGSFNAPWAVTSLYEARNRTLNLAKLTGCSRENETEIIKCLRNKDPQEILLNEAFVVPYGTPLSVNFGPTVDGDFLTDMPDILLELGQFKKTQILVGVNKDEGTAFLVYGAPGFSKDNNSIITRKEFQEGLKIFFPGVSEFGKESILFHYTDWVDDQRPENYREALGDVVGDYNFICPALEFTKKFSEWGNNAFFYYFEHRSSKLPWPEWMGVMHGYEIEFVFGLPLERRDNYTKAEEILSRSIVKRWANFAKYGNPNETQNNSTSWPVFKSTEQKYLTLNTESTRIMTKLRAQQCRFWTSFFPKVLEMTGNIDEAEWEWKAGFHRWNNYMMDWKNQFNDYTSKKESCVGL
Method: as §1, §2, §3

[3] = tested on: 5-HT4R; conditions: read-out: EC50 relative to 5-HT4R; cited from earlier work
[4] = human erythrocyte AChE, ATCh substrate, 37 °C, read-out: Ki

For `CCN(CC)CCNC(=O)n1c(=O)n(C(C)(C)C)c2ccccc21.Cl` [Compound 13, N-[2-(diethylamino)ethyl]-2-oxo-3-(tert-butyl)-2,3-dihydro-1H-benzimidazole-1-carboxamide hydrochloride], the Ki [1] was 36.1 µM, the “AChE inhibition less effective than compound 24 (ratio of Ki)” value ([1]; compound 13 vs compound 24) was ~300 times and the “Type of Inhibition” value [1] was “strictly competitive”. For the same molecule, the “Type of Inhibition” value [2] was “non-competitive” and the Ki ([2]; read-out: Ki) was 1.7 µM.
With `CC(C)n1c(=O)n(C(=O)NC2CC3CCC(C2)N3C)c2ccccc21` (stereo not drawn) [Compound 15, reference compound] the “Type of Inhibition” value [1] was “mixed”, the “thermodynamic cooperativity factor α” value [1] was 6.6 and the Ki [1, 4] was 127 µM. For the same molecule, the “Type of Inhibition” value [2] was “competitive”, the Ki ([2]; read-out: Ki) was 9.7 µM and the EC50 [3] was 0.018 µM.
With `CC(C)n1c(=O)n(C(=O)NC2CC3CCC(C2)N3C)c2cc(C(F)(F)F)ccc21` (stereo not drawn) [Compound 16] the “Type of Inhibition” value [1] was “mixed”, the “thermodynamic cooperativity factor α” value [1] was 5.1 and the Ki [1, 4] was 31 µM. For the same molecule, the “Type of Inhibition” value [2] was “competitive” and the Ki ([2]; read-out: Ki) was 21.3 µM.
With `CCN(CC)CCNC(=O)n1c(=O)n(C(C)C)c2ccccc21` [Compound 22] the “Type of Inhibition” value [1] was “strictly competitive”, the Ki [1, 4] was 97.1 µM and the “Type of Inhibition” value [2] was “competitive”. It also gave a Ki ([2]; read-out: Ki) of 15.2 µM.
For `CCN(CC)CCNC(=O)n1c(=O)n(C(C)C)c2ccc(C(F)(F)F)cc21` [Compound 23], the “Type of Inhibition” value [1] was “mixed”, the “thermodynamic cooperativity factor α” value [1] was 3.1 and the Ki [1, 4] was 60.5 µM. For the same molecule, the “Type of Inhibition” value [2] was “non-competitive” and the Ki ([2]; read-out: Ki) was 4.5 µM.
For `CC(C)n1c(=O)n(C(=O)N2CCN(C(c3ccccc3)c3ccc(Cl)cc3)CC2)c2ccccc21` (stereo not drawn) [Compound 24], the “Type of Inhibition” value [1] was “non-competitive”, the Ki [1, 4] was 0.13 µM and the “Type of Inhibition” value [2] was “no inhibition”. The Ki [2] was “no inhibitory effect; also recorded: did not demonstrate inhibitory properties; also recorded: no inhibition”.
For `CCN(CC)CCNC(=O)n1c(=O)n(C2CC2)c2ccccc21` [Compound 27], the “Type of Inhibition” value [1] was “mixed”, the “thermodynamic cooperativity factor α” value [1] was 10.9 and the Ki [1, 4] was 132 µM. For the same molecule, the “Type of Inhibition” value [2] was “competitive” and the Ki ([2]; read-out: Ki) was 16.2 µM.
In the case of `CN(C)CCNC(=O)n1c(=O)n(C2CC2)c2ccccc21` [Compound 28], the “Type of Inhibition” value [1] is reported as “mixed”, the “thermodynamic cooperativity factor α” value [1] is reported as 12.6 and the Ki [1, 4] is reported as 138 µM. For the same molecule, the “Type of Inhibition” value [2] was “non-competitive” and the Ki ([2]; read-out: Ki) was 28.1 µM.
